Assay results published in the NIST ThermoML archive (doi:10.1007/s10765-007-0151-9).
Several values for one entry are separate records, joined by “and”; a condition that tells them apart may be missing. Equal entries are not always repeated. Numbers after ± are expanded uncertainties.

Settings: 101.33 kPa, Liquid, Pulse-echo method

[Pb] [lead]
speed of sound (610 K): 1834 ± 30 m/s
speed of sound (626 K): 1810.5 ± 30 m/s
speed of sound (678 K): 1790.3 ± 29 m/s
speed of sound (703 K): 1784 ± 29 m/s
speed of sound (787 K): 1769.8 ± 29 m/s
speed of sound (814 K): 1749 ± 29 m/s
speed of sound (897 K): 1729.8 ± 28 m/s
speed of sound (1078 K): 1688 ± 28 m/s

[Si] [silicon]
speed of sound (1723 K): 3916.1 ± 64 m/s
speed of sound (1748 K): 3929 ± 64 m/s
speed of sound (1755 K): 3945.9 ± 65 m/s
speed of sound (1789 K): 3973.3 ± 65 m/s
speed of sound (1795 K): 3969 ± 65 m/s
speed of sound (1823 K): 3976.3 ± 65 m/s
speed of sound (1852 K): 4003 ± 66 m/s
speed of sound (1889 K): 4020 ± 66 m/s

[Ge] [germanium]
speed of sound (1216 K): 2690.9 ± 44 m/s and 2689.9 ± 44 m/s
speed of sound (1233 K): 2690.8 ± 44 m/s and 2691.1 ± 44 m/s
speed of sound (1252 K): 2689.5 ± 44 m/s and 2696.2 ± 44 m/s
speed of sound (1270 K): 2692 ± 44 m/s and 2695 ± 44 m/s
speed of sound (1289 K): 2690.8 ± 44 m/s and 2700.4 ± 44 m/s
speed of sound (1307 K): 2690.6 ± 44 m/s and 2695 ± 44 m/s
speed of sound (1352 K): 2673.6 ± 44 m/s and 2678.4 ± 44 m/s
speed of sound (1398 K): 2662.8 ± 44 m/s and 2666.3 ± 44 m/s
speed of sound (1443 K): 2652.5 ± 44 m/s and 2654.4 ± 44 m/s

[Sn] [tin]
speed of sound (608 K): 2470 ± 41 m/s
speed of sound (804 K): 2408 ± 40 m/s
speed of sound (814 K): 2416 ± 40 m/s
speed of sound (919 K): 2379 ± 39 m/s
speed of sound (1012 K): 2366 ± 39 m/s
speed of sound (1025 K): 2332 ± 38 m/s
speed of sound (1218 K): 2306 ± 38 m/s
speed of sound (1453 K): 2234 ± 37 m/s
speed of sound (1463 K): 2242 ± 37 m/s
